Test results from ChEMBL document CHEMBL5518189, “Design, synthesis and biological evaluation of 1,2,3-triazole benzothiazole derivatives as tubulin polymerization inhibitors with potent anti-esophageal cancer activities” (Eur J Med Chem, 2024).
The source made the active and inactive calls. The calls are words filed in the database; no cut-off is given here.

Tests used:
KYSE-30 [1] = test: Induction of apoptosis in human KYSE-30 cells assessed as downregulation of XIAP level at 40 to 60 nM by flow cytometry analysis; assay type: functional, cell-based; settings: dose 40-60 nM
Tubulin (Homo sapiens) [2] = biological target: T1, Tubulin (Homo sapiens) (UniProt P68371+Q9H4B7+P0DPH7+P68366+Q13509+Q71U36+P04350+Q3ZCM7+P07437+P68363+Q9BQE3+Q6PEY2+Q13885+Q9BVA1+Q9BUF5); test: Inhibition of tubulin polymerization in human KYSE-30 cells assessed as appearance of multinucleation at 20 to 40 nM incubated for 6 hrs by immunofluorescence staining based fluorescence microscopic analysis; assay type: cell-based; settings: dose 20-40 nM
ECa-109 cell line [3] = test: Induction of apoptosis in human EC109 cells assessed as decrease in pro-caspase 3 level at 40 to 100 nM measured after 48 hrs by Western blot analysis; assay type: functional, cell-based; settings: dose 40-100 nM
ECa-109 cell line [4] = test: Induction of cell cycle arrest in human EC109 cells assessed as downregulation of CDK1 level at 40 to 60 nM measured after 48 hrs by Western blot analysis; assay type: functional, cell-based; settings: dose 40-60 nM
ECa-109 [5] = test: Effect on MST2 level in human EC109 cells at 40 to 60 nM measured after 48 hrs; assay type: functional, cell-based; settings: dose 40-60 nM
KYSE-30 [6] = test: Induction of apoptosis in human KYSE-30 cells assessed as effect on Bcl-xl level at 40 to 60 nM by flow cytometry analysis; assay type: functional, cell-based; settings: dose 40-60 nM
KYSE-30 [7] = test: Induction of apoptosis in human KYSE-30 cells assessed as effect on bak level at 40 to 60 nM by flow cytometry analysis; assay type: functional, cell-based; settings: dose 40-60 nM
ECa-109 cell line [8] = test: Induction of apoptosis in human EC109 cells assessed as effect on bax level at 40 to 60 nM by flow cytometry analysis; assay type: functional, cell-based; settings: dose 40-60 nM
KYSE-30 [9] = test: Inhibition of colony formation in human KYSE-30 cells at 20 to 40 nM incubated for 7 days by crystal violet staining based analysis; assay type: functional, cell-based; settings: dose 20-40 nM, time 7.0 day
Cell membrane [10] = test: Induction of mitochondrial membrane depolarization in human EC109 cells at 40 to 60 nM incubated for 24 hrs by flow cytometry analysis; assay type: cell membranes; settings: dose 40-60 nM
ECa-109 cell line [11] = test: Induction of cell cycle arrest in human EC109 cells assessed as upregulation of histone H3 phosphorylation level at 40 to 60 nM measured after 48 hrs by Western blot analysis; assay type: functional, cell-based; settings: dose 40-60 nM
ECa-109 cell line [12] = test: Induction of apoptosis in human EC109 cells assessed as effect on Bcl-xl level at 40 to 60 nM by flow cytometry analysis; assay type: functional, cell-based; settings: dose 40-60 nM
ECa-109 cell line [13] = test: Inhibition of colony formation in human EC109 cells at 20 to 40 nM incubated for 7 days by crystal violet staining based analysis; assay type: functional, cell-based; settings: dose 20-40 nM, time 7.0 day
KYSE-30 [14] = test: Induction of cell cycle arrest in human KYSE-30 cells assessed as downregulation of CDC25C level at 40 to 60 nM measured after 48 hrs by Western blot analysis; assay type: functional, cell-based; settings: dose 40-60 nM
KYSE-30 [15] = test: Induction of cell cycle arrest in human KYSE-30 cells assessed as downregulation of Wee1 phosphorylation level at 40 to 60 nM measured after 48 hrs by Western blot analysis; assay type: functional, cell-based; settings: dose 40-60 nM
KYSE-30 [16] = test: Induction of apoptosis in human KYSE-30 cells assessed as increase in Noxa expression level at 40 to 60 nM by flow cytometry analysis; assay type: functional, cell-based; settings: dose 40-60 nM
KYSE-30 [17] = test: Induction of apoptosis in human KYSE-30 cells assessed as decrease in pro-caspase 3 level at 40 to 100 nM measured after 48 hrs by Western blot analysis; assay type: functional, cell-based; settings: dose 40-100 nM
KYSE-30 [18] = test: Induction of apoptosis in human KYSE-30 cells assessed as increase in total number of apoptotic cells at 40 nM measured after 48 hrs by annexin V-FITC and PI staining based flow cytometry analysis (reference value: 13.77%); assay type: functional
ECa-109 cell line [19] = test: Induction of apoptosis in human EC109 cells assessed as effect on Mcl-1 level at 40 to 60 nM by flow cytometry analysis; assay type: functional, cell-based; settings: dose 40-60 nM
KYSE-30 [20] = test: Induction of cell cycle arrest in human KYSE-30 cells assessed as upregulation of histone H3phosphorylation level at 40 to 60 nM measured after 48 hrs by Western blot analysis; assay type: functional, cell-based; settings: dose 40-60 nM
ECa-109 cell line [21] = test: Induction of cell cycle arrest in human EC109 cells assessed as downregulation of CDC25C level at 40 to 60 nM measured after 48 hrs by Western blot analysis; assay type: functional, cell-based; settings: dose 40-60 nM
KYSE-30 [22] = test: Induction of apoptosis in human KYSE-30 cells assessed as effect on Mcl-1 level at 40 to 60 nM by flow cytometry analysis; assay type: functional, cell-based; settings: dose 40-60 nM
KYSE-30 [23] = test: Antiproliferative activity against human KYSE-30 cells assessed as reduction in cell viability at 70 nM measured after 48 hrs by CCK-8 method relative to control; assay type: functional
Cell membrane [24] = test: Induction of mitochondrial membrane depolarization in human EC109 cells assessed as increase in caspase 9 activity at 40 to 60 nM incubated for 24 hrs by flow cytometry analysis; assay type: cell membranes; settings: dose 40-60 nM
ECa-109 cell line [25] = test: Induction of apoptosis in human EC109 cells assessed as downregulation of bcl-2 level at 40 to 60 nM by flow cytometry analysis; assay type: functional, cell-based; settings: dose 40-60 nM
KYSE-30 [26] = test: Induction of cell cycle arrest in human KYSE-30 cells assessed as effect on cyclin B1 level at 40 to 60 nM measured after 48 hrs by Western blot analysis; assay type: functional, cell-based; settings: dose 40-60 nM
ECa-109 [27] = test: Downregulation of YAP level in human EC109 cells incubated for 48 hrs; assay type: functional, cell-based; settings: dose 40-80 nM
HCT-116 = test: Antiproliferative activity against human HCT-116 cells assessed as inhibition of cell growth measured after 48 hrs by CCK8 method; assay type: functional, cell-based; settings: HCT-116, 48 h
ECa-109 cell line [28] = test: Induction of apoptosis in human EC109 cells assessed as increase in cleaved PARP level at 40 to 100 nM measured after 48 hrs by Western blot analysis; assay type: functional, cell-based; settings: dose 40-100 nM
KYSE-30 [29] = test: Antiproliferative activity against human KYSE-30 cells assessed as inhibition of cell growth measured after 48 hrs by CCK8 method; assay type: functional, cell-based; settings: KYSE-30, 48 h
KYSE-30 [30] = test: Induction of cell cycle arrest in human KYSE-30 cells assessed as downregulation of CDK1 level at 40 to 60 nM measured after 48 hrs by Western blot analysis; assay type: functional, cell-based; settings: dose 40-60 nM
ECa-109 cell line [31] = test: Induction of apoptosis in human EC109 cells assessed as increase in cleaved caspase 3 level at 40 to 100 nM measured after 48 hrs by Western blot analysis; assay type: functional, cell-based; settings: dose 40-100 nM
ECa-109 cell line [32] = test: Antiproliferative activity against human EC109 cells assessed as reduction in cell viability at 70 nM measured after 48 hrs by CCK-8 method relative to control; assay type: functional
KYSE-30 [33] = test: Antiproliferative activity against human KYSE-30 cells assessed as reduction in cell viability measured after 48 hrs by CCK-8 method; assay type: functional, cell-based; settings: dose 10-70 nM
Tubulin (Homo sapiens) [34] = biological target: T1, Tubulin (Homo sapiens); test: Inhibition of tubulin polymerization in human EC109 cells assessed as appearance of multinucleation at 20 to 40 nM incubated for 6 hrs by immunofluorescence staining based fluorescence microscopic analysis; assay type: cell-based; settings: dose 20-40 nM
Cell membrane [35] = test: Induction of mitochondrial membrane depolarization in human KYSE-30 cells at 40 to 60 nM incubated for 24 hrs by flow cytometry analysis; assay type: cell membranes; settings: dose 40-60 nM
KYSE-30 [36] = test: Induction of cell cycle arrest in human KYSE-30 cells assessed as accumulation of cells at G2/M phase at 0 to 40 nM measured after 48 hrs by propidium iodide staining based flow cytometry analysis (reference value: 13.87%); assay type: functional; settings: dose 0-40 nM

## COc1ccc(CN(C(=O)Cn2cc(CSc3nc4ccccc4s3)nn2)c2cc(OC)c(OC)c(OC)c2)cc1O
KYSE-30 [1]
  Activity: Active
Tubulin (Homo sapiens) [2]
  inhibition: Active
ECa-109 cell line [3]
  Activity: Active
ECa-109 cell line [4]
  Activity: Active
ECa-109 [5]
  Activity: inactive
KYSE-30 [6]
  Activity: inactive
KYSE-30 [7]
  Activity: inactive
ECa-109 cell line [8]
  Activity: inactive
KYSE-30 [9]
  inhibition: Active
Cell membrane [10]
  Activity: Active
ECa-109 cell line [11]
  Activity: Active
ECa-109 cell line [12]
  Activity: inactive
ECa-109 cell line [13]
  inhibition: Active
KYSE-30 [14]
  Activity: Active
KYSE-30 [15]
  Activity: Active
KYSE-30 [16]
  Activity: Active
KYSE-30 [17]
  Activity: Active
KYSE-30 [18]
  Activity: 28.56%
ECa-109 cell line [19]
  Activity: inactive
KYSE-30 [20]
  Activity: Active
ECa-109 cell line [21]
  Activity: Active
KYSE-30 [22]
  Activity: inactive
KYSE-30 [23]
  Activity: >90%
Cell membrane [24]
  Activity: Active
ECa-109 cell line [25]
  Activity: Active
KYSE-30 [26]
  Activity: inactive
ECa-109 [27]
  Activity: Dose-Dependent Effect
HCT-116
  IC50: 62 nM
ECa-109 cell line [28]
  Activity: Active
KYSE-30 [29]
  IC50: 42 nM
KYSE-30 [30]
  Activity: Active
ECa-109 cell line [31]
  Activity: Active
ECa-109 cell line [32]
  Activity: >90%
KYSE-30 [33]
  Activity: Dose-Dependent Effect
Tubulin (Homo sapiens) [34]
  inhibition: Active
Cell membrane [35]
  Activity: Active
KYSE-30 [36]
  Activity: 28.15%
